Target: T1, dual specificity phosphatase 22 (DUSP22) (Homo sapiens, UniProt Q9NRW4)
T1 construct: recombinant DUSP22 from pET-28a(+)-DUSP22, purified from E. coli BL21(DE3)
T1 sequence (Q9NRW4 2-184): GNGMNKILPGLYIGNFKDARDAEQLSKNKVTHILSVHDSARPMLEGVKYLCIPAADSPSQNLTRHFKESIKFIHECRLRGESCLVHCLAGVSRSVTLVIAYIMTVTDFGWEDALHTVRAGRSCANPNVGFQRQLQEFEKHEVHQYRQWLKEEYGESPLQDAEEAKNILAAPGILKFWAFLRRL
Assay: fluorescent 3-OMFP phosphatase inhibition assay in droplet microfluidic chip (microwell plate IC50 […])
Type: biochemical

## CCN(N=O)c1ccc(O)c(O)c1 [ethyl-3,4-dephostatin]
  IC50: 5.79 ± 1.09 µM

Source: paper PMC9496282, “Analysis of Phosphatase Activity in a Droplet-Based Microfluidic Chip” (Biosensors, 2022)
